{"source": "patent US10537611B2", "about": "“Methods of treating lung cancer” (Five Prime Therapeutics, Inc., priority 2011, dated 2020)", "key": {"[1]": {"test_system": "G-401 xenograft model", "experiment": "G-401 xenograft tumor growth inhibition", "format": "in vivo, mouse", "conditions": "Renal G-401; IP 15 mg/kg BIW; non-amplified; P < 0.05", "protocol": "Percentage tumor growth inhibition by FGFR1-ECD.339-Fc was determined by area-under-the-curve (AUC) analysis of xenograft growth curves treated with FGFR1-ECD.339-Fc compared to albumin control. […] The difference in FGFR1-ECD.339-Fc-mediated xenograft inhibition between FGFR1 gene amplified and non-amplified lung cancer xenograft models was statistically significant (P=0.0333).\nAlso shown in Table 5 are the dosing schedule for FGFR1-ECD.339-Fc in a mouse xenograft model, the percent tumor growth inhibition (TGI (%)) and the statistical significance of the tumor growth inhibition (P Value), as well as whether the FGFR1 gene is amplified in the cell line.\nAn exemplary xenograft experiment is as follows. For Caki-1 and MSTO-211H, five million cells were implanted subcutaneously over the right flank of SCID mice (N=10 per group). […] Representative tumor growth curves are shown for a renal cancer, Caki-1, (A), and mesothelioma, MSTO-211H, (B) xenograft cancer model. […] In the MSTO-211H mesothelioma model, FGFR1-ECD.339-Fc administration reduced tumor growth (FIG. 16b) by 64% (P<0.0001)."}, "[2]": {"test_system": "NCI-H1581 cells", "experiment": "CellTiter-Glo cell number, NCI-H1581", "format": "cell-based, human", "conditions": "15 μg/ml, 4 days, 10%, 1% or 0.1% FBS", "text": "A panel of lung cancer cell lines displaying potential amplification of the FGFR1 gene was identified using CONAN (http://www.sanger.ac.uk/cgi-bin/genetics/CGP/conan/search.cgi) and Tumorscape (http://www.broadinstitute.org/tumorscape/pages/portalHomejsf). CONAN and Tumorscape represent public data mining tools to extract gene copy number information for predefined or user defined loci across the SNP6.0 dataset of cancer. Lung cancer cell lines DMS53, DMS114, NCI-H1581 and NCI-H520 were identified as having potential amplification of the FGFR1 gene (>4 copies/cell) and were selected for further analysis. Human small cell lung cancer (SCLC) cell lines DMS53 and DMS114 were purchased from ATCC (Manassas, Va.; Cat. No. CRL-2062; Cat. No. CRL-2066, respectfully). The cells were cultured in Waymouth's MB 752/1 medium+10% FBS+2 mM L-glutamine at 37° C. in a humidified atmosphere with 5% CO2. […]\nTo determine cell number the CellTiter-Glo® Luminescent Cell Viability Assay (Promega, Madison, Wis.) was employed. CellTiter-Glo® is a homogeneous method of determining the number of viable cells in culture based on quantitation of the ATP present, an indicator of metabolically active cells. […] Luminescence was then determined on an EnVision™ Multilabel Plate Reader (PerkinElmer, Boston, Mass.) with a 0.2 second integration time. Results were expressed as relative light units (RLU)/well."}}}
{"substance": "FGFR1-ECD.339-Fc: human FGFR1 extracellular domain ending at amino acid 339 fused to an Fc; SEQ ID NO: 6 (mature form), SEQ ID NO: 5 with signal peptide", "values": [{"measurement": "TGI (%)", "setting": "[1]", "value": 36, "unit": "%"}, {"measurement": "cell number (CellTiter-Glo)", "setting": "[2]", "value": "reduced"}]}
